Measurements taken from patent US20090042942A1 (priority 2005, published 2009).

Molecular target: T1, human muscarinic acetylcholine M3 receptor (M3-ACh) (Homo sapiens, UniProt P20309)
T1 construct: expressed in transfected cells; host or cells: CHO-KL (Chinese Hamster Ovary) cells, membranes
Test: biochemical
Type: binding

T1 sequence (P20309 whole entry): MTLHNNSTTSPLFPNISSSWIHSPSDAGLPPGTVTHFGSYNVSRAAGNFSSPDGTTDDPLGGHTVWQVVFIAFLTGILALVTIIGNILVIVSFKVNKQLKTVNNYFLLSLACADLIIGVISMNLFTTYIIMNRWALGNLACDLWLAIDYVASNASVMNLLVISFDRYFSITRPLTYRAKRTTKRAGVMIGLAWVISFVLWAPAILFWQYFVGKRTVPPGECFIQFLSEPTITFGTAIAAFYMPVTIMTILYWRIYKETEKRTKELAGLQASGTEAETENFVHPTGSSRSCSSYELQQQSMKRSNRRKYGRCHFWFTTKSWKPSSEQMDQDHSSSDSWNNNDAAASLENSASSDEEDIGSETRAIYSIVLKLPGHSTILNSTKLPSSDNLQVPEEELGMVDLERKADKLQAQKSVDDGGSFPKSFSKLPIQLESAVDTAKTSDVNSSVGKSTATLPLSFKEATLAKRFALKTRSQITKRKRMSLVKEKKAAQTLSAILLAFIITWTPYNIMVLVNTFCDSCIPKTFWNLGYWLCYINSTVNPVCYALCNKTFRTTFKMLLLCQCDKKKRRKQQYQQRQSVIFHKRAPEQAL

| Structure (SMILES) | IC50 |
| --- | --- |
| CN1CC[C@H](OC(=O)[C@@](C)(c2ccccc2)C2CCCC2)C1 [Example 1f, (3S)-1-Methylpyrrolidin-3-yl (2R)-2-cyclopentyl-2-phenylpropanoate] | 20 nM |
| CN1CC[C@@H](OC(=O)[C@@](C)(c2ccccc2)C2CCCC2)C1 [Example 2a, (3R)-1-Methylpyrrolidin-3-yl (2R)-2-cyclopentyl-2-phenylpropanoate] | 7.94 nM |
| CN1CC[C@H](OC(=O)[C@](C)(c2ccccc2)C2CCCC2)C1 [Example 3c, (3S)-1-Methylpyrrolidin-3-yl (2S)-2-cyclopentyl-2-phenylpropanoate] | 3.16 nM |
| CN1CC[C@@H](OC(=O)[C@](C)(c2ccccc2)C2CCCC2)C1 [Example 4a, (3R)-1-Methylpyrrolidin-3-yl (2S)-2-cyclopentyl-2-phenylpropanoate] | 0.794 nM |
| C[C@@](C(=O)O[C@@H]1CCC[N+](C)(C)C1)(c1ccccc1)C1CCCC1 [Example 5, (3R)-3-{[(2S)-2-Cyclopentyl-2-phenylpropanoyl]oxy}-1,1-dimethylpiperidinium iodide] | 1.26 nM |
| C[C@@](C(=O)O[C@H]1CCC[N+](C)(C)C1)(c1ccccc1)C1CCCC1 [Example 6, (3S)-3-{[(2S)-2-Cyclopentyl-2-phenylpropanoyl]oxy}-1,1-dimethylpiperidinium iodide] | 20 nM |
